Columns and labels:
HeLa = assay: Selectivity ratio of IC50 for drug to SAHA against human HDAC in HeLa cell nuclear extract; assay type: cell-based
[1] = molecular target: Histone deacetylase (Homo sapiens) (UniProt Q13547+O15379+Q9UBN7+Q92769+Q9UQL6+Q8WUI4+Q9BY41+Q96DB2+P56524+Q9UKV0+Q969S8); conditions: HeLa, at 50 nM
Description: Inhibition of human HDAC in human HeLa cell nuclear extract at 50 nM after 15 mins by colorimetric assay

Histone deacetylase = assay: Inhibition of human HDAC in human HeLa cell nuclear extract after 15 mins by colorimetric assay; assay type: cell-based

O=C(CCCCC[Se][Se]CCCCCC(=O)Nc1ccccc1)Nc1ccccc1
Ratio IC50 (HeLa): > 20 | inhibition [1]: 81%

N#C[Se]CCCCCC(=O)Nc1ccccc1
IC50 (Histone deacetylase): 8.9 nM | Ratio IC50 (HeLa): 20 | inhibition [1]: 95%

Reference: ChEMBL document CHEMBL1155391, “SelSA, selenium analogs of SAHA as potent histone deacetylase inhibitors” (Bioorg Med Chem Lett, 2010)
